Experimental data taken from PMC6213923, “Meroterpenoids and Isocoumarinoids from a Myrothecium Fungus Associated with Apocynum venetum” (Marine Drugs, 2018).

Test system: not given
Assay: not given
Conditions: not given

In the case of COc1cc(O)c2c(=O)occ(C(=O)CO)c2c1 [Compound 7, Myrothelactone C], the melting point is reported as 160 to 161 °C.

Molecular target: human-sourced α-glucosidase recombinant expressed in Saccharomyces cerevisiae
Assay: α-glucosidase inhibitory assay (pNPG substrate)
Format: biochemical
Conditions: PBS pH 6.8, 37 °C, absorbance at 405 nm, preliminarily investigated, read-out: α-glucosidase inhibition IC50
Description: The α-glucosidase inhibitory activity of 1–13 was preliminarily investigated.
The sample was dissolved in sodium phosphate buffer (PBS, pH 6.8) at three concentrations. 10 μL of the sample solution, 20 μL of 2.5 mM pNPG solution (in phosphate buffer) and 20 μL of PBS were mixed in a 96-well microplate and incubated at 37 °C for 5 min. A volume of 10 μL of α-glucosidase diluted to 0.2 U/mL by 0.01 M PBS was then added to each well. After incubating at 37 °C for 15 min, the absorbance at 405 nm was recorded by a Spectra max 190 micro plate reader (Molecular Devices Inc., San Jose, CA, USA). The blank was prepared by adding phosphate buffer instead of the α-glucosidase and the positive control was acarbose. […] The inhibition (%) was calculated as [1 − (ODdrug/ODblank)] × 100%.

Point of comparison: CC(=O)O[C@H]1[C@H](O)C[C@@]2(C)[C@@H](CC[C@@H](C)[C@]23Cc2c(cc(CO)c(C=O)c2O)O3)C1(C)C [Compound 2, Myrothecisin B], IC50 660 µM. Against it:
- CC(=O)O[C@@H]1C[C@@]2(C)[C@@H](CC[C@@H](C)[C@]23Cc2c(cc(CO)c(C=O)c2O)O3)C(C)(C)[C@H]1O [Compound 1, Myrothecisin A] — within 1.5-fold, 500 µM
- CC(=O)O[C@H]1CC=C2[C@@H](CC[C@@H](C)[C@@]2(C)Cc2c(O)cc(CO)c(C=O)c2O)C1(C)C [Compound 3, Myrothecisin C] — 11-fold lower, 58 µM
- C[C@@H]1CC[C@@H]2C(=CC[C@H](O)C2(C)C)[C@]1(C)Cc1c(O)cc(CO)c(C=O)c1O [Compound 4, Myrothecisin D] — 3.3-fold lower, 200 µM
- COc1cc(O)c2c(=O)occ(C(O)CO)c2c1 (stereo not shown) [Compound 5, Myrothelactone A] — 2.1-fold lower, 320 µM
- COc1cc(O)c2c(=O)occ(C(=O)CO)c2c1 [Compound 7, Myrothelactone C] — 18-fold lower, 36 µM
- COc1cc(O)c2c(=O)oc(CO)c(CO)c2c1 [Compound 9, tubakialactone B] — 25-fold lower, 26 µM
- Cc1c(CO)oc(=O)c2c(O)cc(O)cc12 [Compound 10, acremonone G] — 1.8-fold lower, 370 µM
- C[C@H]1O[C@H](O[C@H]2[C@H](O)[C@@H](O)[C@@H](O[C@H]3[C@H](O)[C@@H](O)C(O)O[C@@H]3CO)O[C@@H]2CO)[C@H](O)[C@@H](O)[C@@H]1N[C@H]1C=C(CO)[C@@H](O)[C@H](O)[C@H]1O (stereo partly shown) [acarbose, reference compound] — within 1.5-fold, 470 µM
